From US20160039904A1, “STABILIZED SINGLE HUMAN CD4 DOMAINS AND FUSION PROTEINS” (priority 2013, published 2016)

Experiments:
HIV-1 KNH1088.EC5 = assay: TZM-bl cell-based neutralization assay; details: Table 6; KNH1088.EC5, clade A, R5
HIV-1 CNE68 = assay type: cell-based; details: Table 7; CNE68, clade BC, R5
HIV-1 CNE17 = assay type: cell-based; details: Table 7; CNE17, clade C, R5
[1] = next 5 days of incubation (days 5-10), 37° C.
Procedure: The proteins were then assessed for their stability against degradation during 15 days of incubation with PBS (see FIG. 12A) or human serum (see FIG. 12B) at 37° C.

HIV-1 CNE6 = assay type: cell-based; details: Table 7; CNE6, clade B′, R5
HIV-1 CH114 = assay type: cell-based; details: Table 7; CH114, clade BC, R5
HIV-1 57128.VRC18 = assay: TZM-bl cell-based neutralization assay; details: Table 6; 57128.VRC18, clade D, R5
HIV-1 CNE9 = assay type: cell-based; details: Table 7; CNE9, clade B′, R5
HIV-1 GX2010.36 = assay type: cell-based; details: Table 7; GX2010.36, clade AE, R5
HIV-1 AE03 = assay type: cell-based; details: Table 7; AE03, clade AE, R5
[2] = Dynamic light scattering (aggregation); assay type: physicochemical
Procedure: To test whether soluble aggregates of 4Dm2m and 6Dm2m formed during prolonged incubation, dynamic light scattering (DLS) was used. Proteins concentrated to 10 mg/ml in PBS were stored at […] and slowly thawed on ice before measurements.

HIV-1 IIIB = assay: Pseudotyped HIV-1 neutralization (HOS-CD4-CXCR4 cells); assay type: cell-based; details: Table 3, clade B, X4
Procedure: (§1) To determine the potency and breadth of HIV-1 neutralization by the D1 mutants, viruses pseudotyped with Envs from HIV-1 isolates representing clades A-E and using either CCR5 (R5) or CXCR4 (X4) or both (R5X4) as a coreceptor were included. Pseudoviruses were derived from 293T cells and a neutralization assay was performed in duplicate using HOS-CD4-CCR5 (for all R5 and dual tropic viruses) or HOS-CD4-CXCR4 cell lines as described in Chen et al., Proc. Natl. Acad. Sci. USA, 105: 17121-17126 (2008)). Luminescence was measured 48 hours post-infection and the percentage neutralization was calculated by the following formula: (1—average RLU of inhibitor-containing wells/average RLU or virus-only wells)×100.

HIV-1 NL4-3 = assay: as above; assay type: cell-based; details: Table 3; NL4-3, clade B, X4
Procedure: as §1

HIV-1 CH120 = assay type: cell-based; details: Table 7; CH120, clade BC, R5
HIV-1 CNE15 = assay type: cell-based; details: Table 7; CNE15, clade BC, R5
HIV-1 CNE40 = assay type: cell-based; details: Table 7; CNE40, clade BC, R5
HIV-1 GXE = assay: Pseudotyped HIV-1 neutralization (HOS-CD4-CCR5 cells); assay type: cell-based; details: Table 3, clade E, R5
Procedure: as §1

HIV-1 R2 = assay: as above; assay type: cell-based; details: Table 3; R2, clade B, R5
Procedure: as §1

HIV-1 CM243 = assay: as above; assay type: cell-based; details: Table 3; CM243, clade E, R5
Procedure: as §1

HIV-1 Z2Z6 = assay: as above; assay type: cell-based; details: Table 3; Z2Z6, clade D, R5
Procedure: as §1

HIV-1 89.6 = assay: as above; assay type: cell-based; details: Table 3; 89.6, clade B, R5X4
Procedure: as §1

HIV-1 JRCSF = assay: as above; assay type: cell-based; details: Table 3, clade B, R5
Procedure: as §1

HIV-1 GXC = assay: as above; assay type: cell-based; details: Table 3, clade C, R5
Procedure: as §1

HIV-1 Bal = assay: as above; assay type: cell-based; details: R5
Procedure: as §1

HIV-1 AD8 = assay: as above; assay type: cell-based; details: Table 3; AD8, clade B, R5
Procedure: as §1

HIV-1 Env JRFL = assay: HIV-1 Env-mediated cell-cell fusion; assay type: cell-based; details: Table 5, clade B, R5
[3] = test system: HIV-1 pseudotyped with Envs from different clades; assay: Pseudotyped HIV-1 neutralization, means over the panel of Table 3; assay type: cell-based; details: all viruses, <[…] assigned 0.01, 2G12: 10 isolates significantly neutralized
Procedure: as §1

Question: Which IC50 (HIV-1 KNH1088.EC5) does the source give for “4Dm2m: bispecific multivalent fusion protein of mD1.22 and m36.4; two SEQ ID NO: 20 and two SEQ ID NO: 21 chains” here?
Answer: 0.48 nM

Question: And the IC50 (HIV-1 CNE68)?
Answer: 0.11 nM

Question: What about the IC90 (HIV-1 CNE68) of the same substance?
Answer: 0.78 nM

Question: And the IC50 (HIV-1 CNE17)?
Answer: 0.11 nM

Question: And the IC90 (HIV-1 CNE17)?
Answer: 2.4 nM

Question: And the “degradation in human serum” value [1]?
Answer: slower than that of CD4-Ig

Question: And the IC50 (HIV-1 CNE6)?
Answer: 0.33 nM

Question: And the IC90 (HIV-1 CNE6)?
Answer: 2.3 nM

Question: And the IC50 (HIV-1 CH114)?
Answer: 0.11 nM

Question: What about the IC90 (HIV-1 CH114) of the same substance?
Answer: 4 nM

Question: And the IC50 (HIV-1 57128.VRC18)?
Answer: 0.4 nM

Question: And the IC90 (HIV-1 57128.VRC18)?
Answer: 2.8 nM

Question: What about the IC50 (HIV-1 CNE9) of the same substance?
Answer: 0.22 nM

Question: What about the IC50 (HIV-1 GX2010.36) of the same substance?
Answer: 0.11 nM

Question: What about the IC50 (HIV-1 AE03) of the same substance?
Answer: 0.67 nM

Question: What about the aggregation propensity [2] of the same substance?
Answer: low aggregation propensity

Question: What about the “aggregation during incubation (DLS)” value ([2]; 10 mg/ml in PBS, 4° C. and 37° C.) of the same substance?
Answer: disappeared within the first day of incubation

Question: What about the “average diameter of particles (DLS)” value ([2]; 10 mg/ml in PBS, after freeze-thaw, predominantly small particles) of the same substance?
Answer: 16.3 nm

Question: What about the IC50 (HIV-1 IIIB) of the same substance?
Answer: 0.037 ± 0.001 nM

Question: And the IC90 (HIV-1 IIIB)?
Answer: 0.1 ± 0.01 nM

Question: And the IC50 (HIV-1 NL4-3)?
Answer: 0.094 ± 0.002 nM

Question: What about the IC90 (HIV-1 NL4-3) of the same substance?
Answer: 0.15 ± 0.02 nM

Question: And the IC50 (HIV-1 CH120)?
Answer: 0.33 nM

Question: What about the IC90 (HIV-1 CH120) of the same substance?
Answer: 6.6 nM

Question: What about the IC50 (HIV-1 CNE15) of the same substance?
Answer: 0.29 nM

Question: And the IC90 (HIV-1 CNE15)?
Answer: 2.6 nM

Question: What about the IC50 (HIV-1 CNE40) of the same substance?
Answer: 0.01 nM

Question: And the IC90 (HIV-1 CNE40)?
Answer: 0.11 nM

Question: What about the IC50 (HIV-1 GXE) of the same substance?
Answer: 0.83 ± 0.11 nM

Question: What about the IC90 (HIV-1 GXE) of the same substance?
Answer: 8.2 ± 1.3 nM

Question: And the IC50 (HIV-1 R2)?
Answer: 0.028 ± 0.011 nM

Question: What about the IC90 (HIV-1 R2) of the same substance?
Answer: 0.43 ± 0.18 nM

Question: And the IC50 (HIV-1 CM243)?
Answer: 0.29 ± 0.11 nM

Question: What about the IC90 (HIV-1 CM243) of the same substance?
Answer: 1.2 ± 0.6 nM

Question: And the IC50 (HIV-1 Z2Z6)?
Answer: 0.14 ± 0.04 nM

Question: And the IC90 (HIV-1 Z2Z6)?
Answer: 1.1 ± 0.1 nM

Question: And the IC50 (HIV-1 89.6)?
Answer: < 0.021 nM

Question: What about the IC90 (HIV-1 89.6) of the same substance?
Answer: < 0.021 nM

Question: What about the IC50 (HIV-1 JRCSF) of the same substance?
Answer: 0.29 ± 0.18 nM

Question: And the IC90 (HIV-1 JRCSF)?
Answer: 3 ± 2.9 nM

Question: And the IC50 (HIV-1 GXC)?
Answer: 0.61 ± 0.36 nM

Question: And the IC90 (HIV-1 GXC)?
Answer: 4 nM

Question: And the IC50 (HIV-1 Bal; Table 2, clade B)?
Answer: 0.12 nM

Question: And the IC90 (HIV-1 Bal; Table 2, clade B)?
Answer: 0.36 nM

Question: What about the IC50 (HIV-1 Bal; Table 3, clade B) of the same substance?
Answer: 0.15 ± 0.04 nM

Question: What about the IC90 (HIV-1 Bal; Table 3, clade B) of the same substance?
Answer: 0.5 ± 0.07 nM

Question: And the IC50 (HIV-1 AD8)?
Answer: 0.13 ± 0.01 nM

Question: And the IC90 (HIV-1 AD8)?
Answer: 0.74 ± 0.06 nM

Question: And the IC50 (HIV-1 Env JRFL)?
Answer: 3.6 ± 0.2 nM

Question: And the IC90 (HIV-1 Env JRFL)?
Answer: 8.8 ± 0.4 nM

Question: And the “IC50, arithmetic mean” value [3]?
Answer: 0.22 nM

Question: What about the “IC50, geometric mean” value [3] of the same substance?
Answer: 0.12 nM

Question: What about the “IC90, arithmetic mean” value [3] of the same substance?
Answer: 1.6 nM

Question: And the “IC90, geometric mean” value [3]?
Answer: 0.56 nM

Question: With enfuvirtide as the substance, how does the IC50 (HIV-1 CNE68) read?
Answer: 32 nM

Question: And the IC90 (HIV-1 CNE68)?
Answer: 321 nM

Question: What about the IC50 (HIV-1 CNE17) of the same substance?
Answer: 42 nM

Question: What about the IC90 (HIV-1 CNE17) of the same substance?
Answer: 676 nM

Question: What about the IC50 (HIV-1 CNE6) of the same substance?
Answer: 1.4 nM

Question: What about the IC90 (HIV-1 CNE6) of the same substance?
Answer: 15 nM

Question: And the IC50 (HIV-1 CH114)?
Answer: 102 nM

Question: What about the IC90 (HIV-1 CH114) of the same substance?
Answer: > 750 nM

Question: What about the IC50 (HIV-1 CNE9) of the same substance?
Answer: 1.7 nM

Question: And the IC90 (HIV-1 CNE9)?
Answer: 14 nM

Question: What about the IC50 (HIV-1 GX2010.36) of the same substance?
Answer: 255 nM

Question: What about the IC90 (HIV-1 GX2010.36) of the same substance?
Answer: > 750 nM

Question: What about the IC50 (HIV-1 AE03) of the same substance?
Answer: 304 nM

Question: And the IC90 (HIV-1 AE03)?
Answer: 510 nM

Question: What about the IC50 (HIV-1 CH120) of the same substance?
Answer: 11 nM

Question: And the IC90 (HIV-1 CH120)?
Answer: 443 nM

Question: And the IC50 (HIV-1 CNE15)?
Answer: 14 nM

Question: What about the IC90 (HIV-1 CNE15) of the same substance?
Answer: 157 nM

Question: What about the IC50 (HIV-1 CNE40) of the same substance?
Answer: 4.9 nM

Question: And the IC90 (HIV-1 CNE40)?
Answer: 108 nM
